The nature of the test: Inhibition of human telomerase expressed in HEK293T cells treated after telomerase elongation by telomeric repeat amplification protocol assay.

Consider `CN(C)c1ccc(Nc2c3ccc(NC(=O)CCN4CCCC4)cc3nc3cc(NC(=O)CCN4CCCC4)ccc23)cc1` [N,N'-(9-{[4-(dimethylamino)phenyl]amino}acridine-3,6-diyl)bis(3-pyrrolidin-1-ylpropanamide)], for which the IC50 (usually the concentration at which inhibition is half-maximal) was 65 nM.

The values above are taken from BindingDB's records for doi:10.1073/pnas.0707365104 (Institut National De La Sant&#163, 2007).
